According to US20020026053A1, “Novel 3-(substituted) -2- indolinones compounds and use thereof as inhibitors of protein kinase activity” (priority 1997, published 2002):

Key:
FLK-1 receptor = assay: FLK-1 Assay (cellular/catalytic ELISA, VEGF-stimulated phosphotyrosine); format: cell-based; set-up: concentration or dose not given beside the values; conditions: protocol P.110
Outline: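 NIH3T3 C7#3 cells engineered to express Flk-1 were serum-starved overnight (0.1% FBS), then exposed to compound for 2 h at 37 °C (final dilution 1:200, 0.5% DMSO) before VEGF stimulation. Lysates captured on anti-FLK-1 antiserum plates; phosphotyrosine detected by UB40 antibody/POD-ABTS ELISA versus untreated controls.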

PDGF-R = PDGF-R Assay (cellular ELISA, U1242 cells); format: cell-based; set-up: concentration or dose not given beside the values; conditions: protocol P.119
Outline: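 U1242 cells seeded in 0.5% serum, serum-starved, then exposed to compound for 2 hr at 37°C before 5–10 min ligand stimulation and lysis in HNTG. Lysate captured on receptor-antibody-coated plates; phosphotyrosine detected with polyclonal anti-pTyr, goat anti-rabbit IgG and ABTS/H2O2, A410 (ref 630 nm), versus untreated cells.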

SMILES	Flk Kinase % Inhibition (P.110) (FLK-1 receptor)	PDGF Kinase % Inhibition (P.119) (PDGF-R)
COc1ccc(Oc2cccc(C=C3C(=O)Nc4ccc(CCCl)cc43)c2)cc1 [10739/G08]	15.0%	1.3%
CN(C)CCCOc1ccc(C=C2C(=O)Nc3ccc(CCCl)cc32)cc1 [10739/G09]	3.1%	13.9%
O=C1Nc2ccc(CCCl)cc2C1=Cc1ccoc1 [10739/G10]	−2.0%	−0.6%
O=C1Nc2ccc(CCCl)cc2C1=Cc1ccc(CO)o1 [10739/G11]	9.8%	7.6%
COc1ccc(C=C2C(=O)Nc3c(Br)cc(Br)c(C)c32)cc1C [10739/H02]	2.2%	−18.6%
Cc1c(Br)cc(Br)c2c1C(=Cc1cccc(OCc3ccccc3)c1)C(=O)N2 [10739/H03]	1.6%	−19.5%
Cc1c(Br)cc(Br)c2c1C(=Cc1ccc(OCc3ccccc3)cc1)C(=O)N2 [10739/H04]	9.9%	−14.2%
Cc1c(Br)cc(Br)c2c1C(=Cc1ccc(O)cc1Cl)C(=O)N2 [10739/H06]	35.6%	−17.1%
Cc1c(Br)cc(Br)c2c1C(=Cc1cc(O)c(O)c(O)c1)C(=O)N2 [10739/H07]	−1.4%	14.9%
COc1ccc(Oc2cccc(C=C3C(=O)Nc4c(Br)cc(Br)c(C)c43)c2)cc1 [10739/H08]	4.0%	−3.5%
Cc1c(Br)cc(Br)c2c1C(=Cc1ccoc1)C(=O)N2 [10739/H10]	15.0%	−13.2%
